Test results as given in patent US20250129074A1, “CHIMERIC COMPOUND FOR TARGETED DEGRADATION OF ANDROGEN RECEPTOR PROTEIN, PREPARATION METHOD THEREFOR, AND MEDICAL USE THEREOF” (Jiangsu Hengrui Pharmaceuticals Co., Ltd., priority 2021, published 2025).

Experiments:
[1] = tested on: LNCap-FGC xenograft tumors; test: Pharmacodynamic testing: LNCap-FGC subcutaneous xenograft in castrated CB17-SCID mice; format: in vivo; conditions: i.g.; for Mean tumor volume D 21 / Number of remaining animals/group / TGI D 21: qd/21 d
Excerpt: To evaluate the inhibition of the growth of castration-resistant prostate cancer LNCap-FGC subcutaneous xenograft tumors in male CB17-SCID mice by compounds of the present disclosure.
Test animals: CB17-SCID male mice, purchased from Beijing Vital River Laboratory Animal Technology Co., Ltd. (certificate No. SCXK(Beijing)2016-0006; animal certification No. 110011220107542683), weighing about 20.54-26.72 g on purchase. Housing conditions: 5 animals/cage, a 12/12-hour light/dark cycle, a constant temperature of 23±1° C. with humidity at 50 to 60%, ad libitum access to food and water.
0.2 mL (10×10^6 cells+Matrigel) of LNCaP FGC cells (Matrigel was added, in a 1:1 ratio by volume) in the logarithmic growth phase was subcutaneously inoculated into the right upper limb of each mouse. When the mean tumor volume reached 77 mm^3, male mice with stable tumor growth were selected and subjected to orchiectomy followed by three days of analgesic care. When the mean tumor volume reached 172 mm^3, grouping and administration were started. The day of grouping was defined as DO, and intragastric administration was started and performed once a day for 21 days. The 21th day after administration was defined as D21 (Table 7). For tumor-bearing mice, the tumor volume was measured with a vernier caliper and the body weight was measured with a balance twice a week, and data were recorded.
All data were plotted and statistically analyzed using Excel and GraphPad Prism 8 software.
The calculation formula for tumor volume (V) was: V=½×a×b^2, where a and b represent length and width, respectively.
Relative tumor proliferation rate T/C(%)=(T-T0)/(C-C0)×100 (%), where T and C represent the tumor volumes of a treatment group and the control group at the end of the experiment; T0 and C0 represent the tumor volumes at the beginning of the experiment.

androgen receptor (AR) = target: T1, androgen receptor (AR) (Homo sapiens, UniProt P10275, T878A); test: Degradation activity on androgen receptor in LNCaP cells (AR ELISA); format: cell-based; conditions: 0.1 nM R1881, 24 hours; for DC50: read-out: LNCaP DC50; for Dmax: read-out: Max (maximum AR degradation rate)
T1 construct: host or cells: LNCaP human prostate cancer cells
T1 sequence (P10275 1-920 T878A): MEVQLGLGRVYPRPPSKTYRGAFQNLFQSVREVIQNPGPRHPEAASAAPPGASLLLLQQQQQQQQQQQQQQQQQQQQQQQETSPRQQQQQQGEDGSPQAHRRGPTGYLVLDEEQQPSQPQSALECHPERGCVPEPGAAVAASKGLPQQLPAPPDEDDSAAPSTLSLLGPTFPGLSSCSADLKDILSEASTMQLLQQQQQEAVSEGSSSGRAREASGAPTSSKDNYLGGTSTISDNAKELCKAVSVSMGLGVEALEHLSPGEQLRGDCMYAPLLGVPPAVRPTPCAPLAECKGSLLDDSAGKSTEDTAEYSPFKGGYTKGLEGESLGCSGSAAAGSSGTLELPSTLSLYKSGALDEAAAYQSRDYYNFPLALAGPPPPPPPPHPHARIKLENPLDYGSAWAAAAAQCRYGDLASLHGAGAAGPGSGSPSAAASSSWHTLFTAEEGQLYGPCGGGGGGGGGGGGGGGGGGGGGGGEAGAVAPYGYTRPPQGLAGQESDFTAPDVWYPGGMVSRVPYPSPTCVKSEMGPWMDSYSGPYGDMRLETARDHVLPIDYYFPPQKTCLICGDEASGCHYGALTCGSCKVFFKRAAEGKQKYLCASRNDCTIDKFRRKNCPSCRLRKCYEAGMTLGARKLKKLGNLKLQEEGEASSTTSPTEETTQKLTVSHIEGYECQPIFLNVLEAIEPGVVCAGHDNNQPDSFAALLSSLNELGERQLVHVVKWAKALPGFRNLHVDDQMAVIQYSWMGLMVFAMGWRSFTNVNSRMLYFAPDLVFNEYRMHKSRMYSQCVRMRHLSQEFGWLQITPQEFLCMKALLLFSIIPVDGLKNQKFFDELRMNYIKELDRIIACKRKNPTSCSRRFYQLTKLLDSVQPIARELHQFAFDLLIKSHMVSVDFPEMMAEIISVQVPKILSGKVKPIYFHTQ
How it was run: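 LNCaP cells were treated with compound, with a 0.5% DMSO blank control, for 24 h at 37 °C, 5% CO2. Cells were then lysed and the lysate clarified. AR protein level was read by ELISA.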

LNCaP cells = test: Inhibition of LNCaP proliferation (CellTiter-Glo); format: cell-based; conditions: Homo sapiens, 144 h, 0.1 nM R1881, six days; for Emax: read-out: Max (maximum proliferation inhibition rate)
Method: The plate was incubated in a 37° C., 5% CO2 cell incubator for three days. […] A blank control cell well containing 0.5% DMSO and a cell-free vehicle control well were set up. The plate was incubated in a 37° C., 5% CO2 cell incubator for six days.

[2] = Pharmacokinetic evaluation in SD rats; conditions: both sexes, rat, in vivo, po, i.g., 2.0 mg/kg; for Vd/F: read-out: Apparent distribution volume Vz/F; for AUC(0-t): read-out: Area under curve AUC0-t; for CL/F: read-out: Clearance rate CL/F; for half-life: read-out: Half-life T½ (converted); for Cmax: read-out: Plasma concentration Cmax
Method: SD rats were used as test animals.
32 SD rats, provided by Vital River Laboratory Animal Co., Ltd., with an equal number of males and females, were evenly divided into 8 groups. The animals were fasted overnight and then intragastrically dosed.
The dose administered was 2.0 mg/kg, and the volume was 10.0 mL/kg.
The procedure starting from the blood collection to the centrifugation was performed under ice-bath conditions. Access to food was given 2 hours after administration.

Row | SMILES | DC50 (androgen receptor (AR)) [nM] | Dmax (androgen receptor (AR)) [%] | IC50 (LNCaP cells) [nM] | Emax (LNCaP cells) [%] | Vd/F [2] [L/kg] | AUC(0-t) [2] [ng·h/mL] | CL/F [2] [mL/min/kg] | half-life [2] [h] | Cmax [2] [ng/mL] | other results
1 | N#Cc1ccc(O[C@H]2CC[C@H](NC(=O)c3ccc(N4CCC(CN5CCN(c6cc7c(cc6F)C(=O)N(C6CCC(=O)NC6=O)C7=O)CC5)CC4)nn3)CC2)cc1Cl (stereo partly shown) [ARV-110, reference compound] | – | – | – | – | – | – | – | – | – | Mean tumor volume D 21 ([1]; 1 mpk): 789 mm^3; Number of remaining animals/group ([1]; 1 mpk): 8/8; TGI D 21 ([1]; 1 mpk): 57%; Mean tumor volume D 21 ([1]; 10 mpk): 293 mm^3; Number of remaining animals/group ([1]; 10 mpk): 8/8; TGI D 21 ([1]; 10 mpk): 92%
2 | C[C@H]1CC2(CCN(c3ccc(C(=O)N4CCC(CN5CCN(c6cccc(NC7CCC(=O)NC7=O)c6)CC5)CC4)nc3)CC2)CN1c1ccc(C#N)c(Cl)c1 (stereo partly drawn) [Example 12, 2-Chloro-4-((3S)-8-(6-(4-((4-(3-((2,6-dioxopiperidin-3-yl)amino)phenyl)piperazin-1-yl)methyl)piperidine-1-carbonyl)pyridin-3-yl)-3-methyl-2,8-diazaspiro[4.5]decan-2-yl)benzonitrile] | 1.3 | 97 | 48 | 73 | 63.1 | 304 | 139 | 5.19 | 37.4 | –
3 | C[C@H]1CC2(CCN(c3ccc(C(=O)N4CCC(CN5CCN(c6cccc(N[C@H]7CCC(=O)NC7=O)c6)CC5)CC4)cc3F)CC2)CN1c1ccc(C#N)c(Cl)c1 [Example 15-1, 2-Chloro-4-((S)-8-(4-(4-((4-(3-(((S)-2,6-dioxopiperidin-3-yl)amino)phenyl)piperazin-1-yl)methyl)piperidine-1-carbonyl)-2-fluorophenyl)-3-methyl-2,8-diazaspiro[4.5]decan-2-yl)benzonitrile] | – | – | – | – | – | – | – | – | – | effect on the body weight of the mice ([1]; 1.5, 5 and 15 mpk, once daily for 21 days): little effect; Mean tumor volume D 21 ([1]; 1.5 mpk): 255 mm^3; Number of remaining animals/group ([1]; 1.5 mpk): 8/8; TGI D 21 ([1]; 1.5 mpk): 94%; Mean tumor volume D 21 ([1]; 5 mpk): 188 mm^3; Number of remaining animals/group ([1]; 5 mpk): 8/8; TGI D 21 ([1]; 5 mpk): 99%; Mean tumor volume D 21 ([1]; 15 mpk): 117 mm^3; Number of remaining animals/group ([1]; 15 mpk): 8/8; TGI D 21 ([1]; 15 mpk): 104%
4 | C[C@H]1CC2(CCN(c3ccc(C(=O)N4CCC(CN5CCN(c6cc(NC7CCC(=O)NC7=O)ccc6F)CC5)CC4)cc3)CC2)CN1c1ccc(C#N)c(Cl)c1 (stereo partly drawn) [Example 23, 2-Chloro-4-((3S)-8-(4-(4-((4-(5-((2,6-dioxopiperidin-3-yl)amino)-2-fluorophenyl)piperazin-1-yl)methyl)piperidine-1-carbonyl)phenyl)-3-methyl-2,8-diazaspiro[4.5]decan-2-yl)benzonitrile] | 6.1 | 96 | 41 | 76 | 26.3 | 703 | 51.2 | 5.93 | 81.6 | –
5 | C[C@H]1CC2(CCN(c3ccc(C(=O)N4CCC5(CC4)CC(N4CCN(c6ccc(N7CCC(=O)NC7=O)cc6)CC4)C5)cc3)CC2)CN1c1ccc(C#N)c(Cl)c1 [Example 28, (S)-2-Chloro-4-(8-(4-(2-(4-(4-(2,4-dioxotetrahydropyrimidin-1(2H)-yl)phenyl)piperazin-1-yl)-7-azaspiro[3.5]nonane-7-carbonyl)phenyl)-3-methyl-2,8-diazaspiro[4.5]decan-2-yl)benzonitrile] | 5.8 | 97 | 17 | 61 | 66.6 | 315 | 108 | 7.17 | 25.5 | –
